Measurements reported in US8143421B2, “Broadspectrum substituted benzimidazole sulfonamide HIV protease inhibitors” (priority 2002, dated 2012).

Experiments:
HIV-1 strain LAI = assay: Cellular anti-HIV assay, MT4 cells, MTT readout, wild type HIV-1 strain LAI; format: cell-based; details: for pIC50 (LAI): MT4 cells, five days, HIV-1 strain LAI; for WT (pIC50 against wild type HIV-LAI strain): Table 4
Procedure: The compounds of the present invention were examined for anti-viral activity in a cellular assay. […] The cellular assay was performed according to the following procedure.

mutant B = assay: Antiviral spectrum, fold resistance towards mutant B; format: cell-based; details: FR=IC50(mutant strain)/IC50(HIV-1 strain LAI)
Procedure: (§1) Because of the increasing emergence of drug resistant HIV strains, the present compounds were tested for their potency against clinically isolated HIV strains harboring several mutations. These mutations are associated with resistance to protease inhibitors and result in viruses that show various degrees of phenotypic cross-resistance to the currently commercially available drugs such as for instance saquinavir, ritonavir, nelfinavir, indinavir and amprenavir. The viral strains R13025, R13027, R13028, R13029, R13034, R13080, T13127 and R13363 contained mutations as indicated below in Table 3.

mutant C = assay: Antiviral spectrum, fold resistance towards mutant C; format: cell-based; details: FR=IC50(mutant strain)/IC50(HIV-1 strain LAI)
Procedure: as §1

mutant D = assay: Antiviral spectrum, fold resistance towards mutant D; format: cell-based; details: FR=IC50(mutant strain)/IC50(HIV-1 strain LAI)
Procedure: as §1

mutant A = format: cell-based; details: FR=IC50(mutant strain)/IC50(HIV-1 strain LAI)
Procedure: (§2) HIV- or mock-infected MT4 cells were incubated for five days in the presence of various concentrations of the inhibitor. […] Cell viability is measured by measuring the concentration of MTT, a yellow, water soluble tetrazolium dye that is converted to a purple, water insoluble formazan in the mitochondria of living cells only. Upon solubilization of the resulting formazan crystals with isopropanol, the absorbance of the solution is monitored at 540 nm. The values correlate directly to the number of living cells remaining in the culture at the completion of the five day incubation. The inhibitory activity of the compound was monitored on the virus-infected cells and was expressed as IC50 and IC90. These values represent the amount of the compound required to protect 50% and 90%, respectively, of the cells from the cytopathogenic effect of the virus. […] The selectivity index (SI) (ratio CC50/IC50) is an indication of the selectivity of the anti-HIV activity of the inhibitor. Wherever results are reported as e.g. pIC50 or pCC50 values, the result is expressed as the negative logarithm of the result expressed as IC50 or CC50 respectively.
(§3) Because of the increasing emergence of drug resistant HIV strains, the present compounds were tested for their potency against clinically isolated HIV strains harboring several mutations. […] The viral strains R13025, R13027, R13028, R13029, R13034, R13080, T13127 and R13363 contained mutations as indicated below in Table 3.
(§4) As a measure of the broad spectrum activity of the present compounds, the fold resistance (FR), defined as FR=IC50(mutant strain)/IC50(HIV-1 strain LAI), was determined.

mutant E = format: cell-based; details: FR=IC50(mutant strain)/IC50(HIV-1 strain LAI)
Procedure: as §2, §3, §4

mutant F = assay: Antiviral spectrum, fold resistance towards mutant F; format: cell-based; details: FR=IC50(mutant strain)/IC50(HIV-1 strain LAI)
Procedure: as §1

mock-infected MT4 cells = assay: in vitro
Procedure: as §2, §4

mutant G = assay: Antiviral spectrum, fold resistance towards mutant G; format: cell-based; details: FR=IC50(mutant strain)/IC50(HIV-1 strain LAI)
Procedure: as §1

mutant H = assay: Antiviral spectrum, fold resistance towards mutant H; format: cell-based; details: FR=IC50(mutant strain)/IC50(HIV-1 strain LAI)
Procedure: as §1

[1] = pCC50 value as determined with mock transfected cells

Compound | pIC50 (LAI) (HIV-1 strain LAI; Table 1) | WT (pIC50 against wild type HIV-LAI strain) (HIV-1 strain LAI) | FR towards mutant B (mutant B) | FR towards mutant C (mutant C) | FR towards mutant D (mutant D) | FR value towards mutant A (mutant A) | FR towards mutant E (mutant E) | FR towards mutant F (mutant F) | Tox (pCC50) (mock-infected MT4 cells) | FR towards mutant G (mutant G) | Tox (pCC50) (mock-infected MT4 cells; [1]) | FR towards mutant H (mutant H) | pIC50 (LAI) (HIV-1 strain LAI; Table 2)
CC(C)CN(C[C@@H](O)[C@H](Cc1ccccc1)NC(=O)OCc1cncs1)S(=O)(=O)c1ccc2nc[nH]c2c1 [Compound 23] | 7.3 | 7.3 | 2.3 | 3.5 | 2.5 | 7.1 | 4.8 | 23 | <4 |  |  |  | 
CC(C)CN(C[C@@H](O)[C@H](Cc1ccccc1)NC(=O)OCc1cncs1)S(=O)(=O)c1ccc2nc(N)[nH]c2c1 [Compound 57] | 5.7 | 5.7 | 0.30 | 0.31 | 0.34 | 0.37 | 0.32 | 0.30 | <4 | 2.0 |  |  | 
[(1S,2R)-2-hydroxy-3-[(2-methylpropyl)[[1-(2-methyl-propyl)benzimidazol-6-yl]sulfonyl]amino]-1-(phenylmethyl)propyl]carbamic acid, [(3R,3aS,6aR)-hexahydrofuro[2,3-b]furan-3-yl]ester [Compound 7] | 8.6 | 8.6 |  | 0.45 | 1.2 |  | 2.1 | 72 |  | 174 | <4 |  | 
CC(C)CN(C[C@@H](O)[C@H](Cc1ccccc1)NC(=O)O[C@H]1CCOC1)S(=O)(=O)c1ccc2nc(NC(=O)NCCN(C)C)[nH]c2c1 [Compound 52] | 6.1 | 6.1 | 2.9 | 3.5 | 3.0 | 4.2 | 3.4 | 4.3 | <5 |  |  |  | 
CC(C)CN(C[C@@H](O)[C@H](Cc1ccccc1)NC(=O)OCc1cccnc1)S(=O)(=O)c1ccc2nc(N)[nH]c2c1 [Compound 54] | 5.8 | 5.8 | 0.40 | 0.42 | 0.46 | 1.6 | 0.42 | 1.7 |  |  | <4 |  | 
CC(C)CN(C[C@@H](O)[C@H](Cc1ccccc1)NC(=O)O[C@H]1CCOC1)S(=O)(=O)c1ccc2ncn(CCc3ccccc3)c2c1 [Compound 15] | 7.7 | 7.7 | 6.3 | 2.4 | 5.4 |  | 6.2 | 269 |  | 407 | 4.2 |  | 
Cc1cc(OCC(=O)N[C@@H](Cc2ccccc2)[C@H](O)CN(CC(C)C)S(=O)(=O)c2ccc3nc[nH]c3c2)no1 [Compound 49] | 6.3 | 6.3 |  |  |  | 12 | 1.0 |  |  |  | <4 | 3.5 | 
COC(=O)Nc1nc2ccc(S(=O)(=O)N(CC(C)C)C[C@@H](O)[C@H](Cc3ccccc3)NC(=O)COc3c(C)cc(N(C)C)cc3C)cc2[nH]1 [Compound 19] | 7.5 | 7.5 | 1.2 | 1.4 | 3.6 | 5.6 | 3.5 | 83 |  |  | <4 |  | 
CC(=O)Nc1nc2ccc(S(=O)(=O)N(CC(C)C)C[C@@H](O)[C@H](Cc3ccccc3)NC(=O)O[C@H]3CCOC3)cc2[nH]1 [Compound 27] | 7.3 | 7.3 |  |  |  | 2.7 | 1.1 |  | <4 |  |  | 2.3 | 
COC(=O)Nc1nc2ccc(S(=O)(=O)N(CC(C)C)C[C@@H](O)[C@H](Cc3ccccc3)NC(=O)COc3c(C)cccc3C)cc2[nH]1 [Compound 6] | 8.6 | 8.6 |  | 2.7 | 2.1 | 2.9 | 1.6 | 10 | <4 | 60 |  |  | 
[(1S,2R)-3-[[(1-methylbenzimidazol-5-yl)sulfonyl](2-methyl-propyl)amino]-2-hydroxy-1-(phenylmethyl)propyl]carbamic acid, [(3R,3aS,6aR)-hexahydrofuro[2,3-b]furan-3-yl]ester [Compound 64] |  | 7.6 |  |  |  | 4.3 | 1.5 |  |  |  | <4 | 13 | 7.6
CC(C)CN(C[C@@H](O)[C@H](Cc1ccccc1)NC(=O)OCc1cccnc1)S(=O)(=O)c1ccc2nc[nH]c2c1 [Compound 35] | 7.0 | 7.0 |  |  |  | 91 | 17 |  |  |  | <4 | 148 | 
COC(=O)Nc1nc2ccc(S(=O)(=O)N(CC(C)C)C[C@@H](O)[C@H](Cc3ccccc3)NC(=O)c3ccc(O)cc3C)cc2[nH]1 [Compound 25] | 7.1 | 7.1 |  |  |  | 1.2 | 1.3 |  | 4.3 |  |  | 4.6 | 
Cc1cccc(C)c1OCC(=O)N[C@@H](Cc1ccccc1)[C@H](O)CN(CC(C)C)S(=O)(=O)c1ccc2nc(N)n(C)c2c1 [Compound 13] | 7.7 | 7.7 | 3.4 | 2.5 | 3.4 |  | 4.5 |  | <4 |  |  |  | 
Cc1cccc(C)c1OCC(=O)N[C@@H](Cc1ccccc1)[C@H](O)CN(CC(C)C)S(=O)(=O)c1ccc2nc(N)[nH]c2c1 [Compound 36] | 6.5 | 6.5 |  |  |  | 4.4 | 3.1 |  | 4.19 |  |  | 17 | 
COc1ccc(C(=O)Nc2nc3ccc(S(=O)(=O)N(CC(C)C)C[C@@H](O)[C@H](Cc4ccccc4)NC(=O)COc4c(C)cccc4C)cc3[nH]2)cc1 [Compound 37] | 6.9 | 6.9 | 0.35 | 0.95 | 1.9 | 1.0 | 1.3 | 7.9 |  | 21 |  |  | 
CC(C)CN(CC(O)C(Cc1ccccc1)NC(=O)OC1COC2OCCC12)S(=O)(=O)c1ccc2nc(N)n(C)c2c1 (centres unmarked) [Compound 41] | 6.6 | 6.6 |  |  |  | 1.4 | 1.4 |  | <4 |  |  | 1.5 | 
Cc1cccc(C)c1OCC(=O)N[C@@H](Cc1ccccc1)[C@H](O)CN(CC(C)C)S(=O)(=O)c1ccc2ncn(CCc3ccccc3)c2c1 [Compound 47] | 6.4 | 6.4 |  |  |  | 14 | 7.8 |  |  |  | <4 | 66 | 
CC(C)CN(C[C@@H](O)[C@H](Cc1ccccc1)NC(=O)O[C@H]1CCOC1)S(=O)(=O)c1ccc2ncn(C)c2c1 [Compound 16] | 7.7 | 7.7 |  | 2.6 | 5.9 |  | 5.4 | 288 | <4.49 |  |  |  | 
